The source of these data is patent US10759816B2, “Heterocyclic compounds as RSV inhibitors” (Enanta Pharmaceuticals, Inc., priority 2016, dated 2020).

The test relates to genotype A, "Long" strain RSV. Briefly: RSV-A in vitro cytoprotection assay in HEp-2 cells (ATPlite readout of cell viability). The class given is cell-based, Human respiratory syncytial virus. The conditions noted are these: human respiratory syncytial virus, HEp-2, HEp-2 cells, genotype A “Long” strain RSV, cytoprotection; read-out: Human RSV-A (“Long” strain) EC50. In outline:
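HEp-2 cells (8,000/well) given 2-fold compound dilutions in duplicate, then infected with RSV-A Long strain stock; viability read by ATPlite luminescence after 4 days. EC50 derived from cytoprotection; cytotoxicity measured on parallel uninfected plate.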
Regarding `Cc1cccc(F)c1NC(=O)c1cc2c(s1)-c1ccccc1N(C(=O)c1cccc(NCc3cccc(C(F)(F)F)n3)n1)CC2` [Example 357], the EC50 – broadly, the concentration at which the effect is half-maximal – was more than 800 nM.

`Cc1cccc(F)c1NC(=O)c1cc2c(s1)-c1ccccc1N(C(=O)c1cccc(NC(C)(C)c3ccccn3)n1)CC2` [Example 358]: the EC50 is less than 400 nM.

As for `COC[C@H]1CCCN1c1cccc(C(=O)N2CCc3cc(C(=O)Nc4c(C)cccc4F)sc3-c3cc(F)ccc32)n1` [Example 359], the EC50 was less than 400 nM.

For `Cc1cccc(F)c1NC(=O)c1cc2c(s1)-c1ccccc1N(C(=O)c1cccc(N(C)Cc3ccc4ncccc4c3)n1)CC2` [Example 360], the EC50 is less than 400 nM.

For the compound `Cc1cccc(F)c1NC(=O)c1cc2c(s1)-c1ccccc1N(C(=O)c1cccc(NCC3(C)CCCO3)n1)CC2` (stereo not shown) [Example 361], the EC50 is more than 800 nM.

Consider `Cc1cccc(F)c1NC(=O)c1cc2c(s1)-c1ccccc1N(C(=O)c1cccc(N(C)C3CCOCC3)n1)CC2` [Example 362], for which the EC50 is less than 400 nM.

Turning to `Cc1cccc(F)c1NC(=O)c1cc2c(s1)-c1ccccc1N(C(=O)c1cccc(N3CCOc4ccccc4C3)n1)CC2` [Example 363], the half-maximal effective concentration (EC50) is less than 400 nM.

`Cc1cccc(F)c1NC(=O)c1cc2c(s1)-c1ccccc1N(C(=O)c1cccc(N3CCOc4ccccc4C3C)n1)CC2` (stereo not shown) [Example 364]: the EC50 is more than 800 nM.

Take `Cc1cccc(F)c1NC(=O)c1cc2c(s1)-c1ccccc1N(C(=O)c1cccc(N3CCOc4c(F)cccc4C3)n1)CC2` [Example 365]: the EC50 is less than 400 nM.

With `COc1ccc2c(c1)OCCN(c1cccc(C(=O)N3CCc4cc(C(=O)Nc5c(C)cccc5F)sc4-c4ccccc43)n1)C2` [Example 366], the EC50 is less than 400 nM.

As to `Cc1cccc(F)c1NC(=O)c1cc2c(s1)-c1ccccc1N(C(=O)c1cccc(N3CCOc4ccc(Br)cc4C3)n1)CC2` [Example 367], the EC50 is less than 400 nM.

On to `Cc1cccc(F)c1NC(=O)c1cc2c(s1)-c1ccccc1N(C(=O)c1cccc(N3CCOc4cccc(F)c4C3)n1)CC2` [Example 368], for which the concentration giving a half-maximal response (EC50) is less than 400 nM.

For the compound `Cc1cccc(F)c1NC(=O)c1cc2c(s1)-c1ccccc1N(C(=O)c1cccc(N3CCOc4cccc(Br)c4C3)n1)CC2` [Example 369], the EC50 was 400 to 800 nM.

For `Cc1cccc(F)c1NC(=O)c1cc2c(s1)-c1ccccc1N(C(=O)c1cccc(N(C)CCNC(=O)OC(C)(C)C)n1)CC2` [Example 370], the EC50 was in the range of 400 to 800 nM.

On to `Cc1cccc(F)c1NC(=O)c1cc2c(s1)-c1ccccc1N(C(=O)c1cccc(N(C)CCN)n1)CC2` [Example 371], for which the EC50 is 400 to 800 nM.

On to `CC(=O)NCCN(C)c1cccc(C(=O)N2CCc3cc(C(=O)Nc4c(C)cccc4F)sc3-c3ccccc32)n1` [Example 372], for which the EC50 fell in the range of 400 to 800 nM.

As to `COC(C)(C)CNc1cccc(C(=O)N2CCc3cc(C(=O)Nc4c(C)cccc4F)sc3-c3ccccc32)n1` [Example 373], the EC50 is less than 400 nM.

For the compound `Cc1cccc(F)c1NC(=O)c1cc2c(s1)-c1ccccc1N(C(=O)c1cccc(N3CCC4C(C3)C4(F)F)n1)CC2` (stereo not shown) [Example 374], the EC50 lay within 400 to 800 nM.

Consider `Cc1cccc(F)c1NC(=O)c1cc2c(s1)-c1ccccc1N(C(=O)c1cccc(N3CCCC(C)(C)CC3)n1)CC2` [Example 375], for which the EC50 was 400 to 800 nM.

In the case of `Cc1cccc(F)c1NC(=O)c1cc2c(s1)-c1ccccc1N(C(=O)c1cccc(N3C[C@H]4COC[C@H]4C3)n1)CC2` [Example 376], the EC50 was more than 800 nM.

With `Cc1cccc(F)c1NC(=O)c1cc2c(s1)-c1ccccc1N(C(=O)c1cccc(N3CCCN(S(C)(=O)=O)c4ccccc43)n1)CC2` [Example 377], the EC50 was more than 800 nM.

On to `CC(=O)N1CCCN(c2cccc(C(=O)N3CCc4cc(C(=O)Nc5c(C)cccc5F)sc4-c4ccccc43)n2)c2ccccc21` [Example 378], for which the EC50 is less than 400 nM.

Turning to `Cc1cccc(F)c1NC(=O)c1cc2c(s1)-c1ccccc1N(C(=O)c1cccc(N3CCN(S(C)(=O)=O)Cc4ccccc43)n1)CC2` [Example 379], the EC50 is more than 800 nM.

Take `Cc1cccc(F)c1NC(=O)c1cc2c(s1)-c1ccccc1N(C(=O)c1cccc(N3CCCN(C(=O)OC(C)(C)C)CC3)n1)CC2` [Example 380]: the EC50 was less than 400 nM.

For `Cc1cccc(F)c1NC(=O)c1cc2c(s1)-c1ccccc1N(C(=O)c1cccc(N3CCCNCC3)n1)CC2` [Example 381], the EC50 was more than 800 nM.

Consider `Cc1cccc(F)c1NC(=O)c1cc2c(s1)-c1ccccc1N(C(=O)c1cccc(N3CCCN(S(=O)(=O)C4CC4)CC3)n1)CC2` [Example 382], for which the EC50 is less than 400 nM.

Take `Cc1cccc(F)c1NC(=O)c1cc2c(s1)-c1ccccc1N(C(=O)c1cccc(N3CCCN(S(=O)(=O)C4(C)CC4)CC3)n1)CC2` [Example 383]: the EC50 was less than 400 nM.

As for `Cc1cccc(F)c1NC(=O)c1cc2c(s1)-c1ccccc1N(C(=O)c1cccc(N3CCCN(S(C)(=O)=O)CC3)n1)CC2` [Example 384], the EC50 is less than 400 nM.

Turning to `Cc1cccc(F)c1NC(=O)c1cc2c(s1)-c1ccccc1N(C(=O)c1cccc(N3CCCN(S(=O)(=O)C4CCCCC4)CC3)n1)CC2` [Example 385], the EC50 was less than 400 nM.

For `Cc1cccc(F)c1NC(=O)c1cc2c(s1)-c1ccccc1N(C(=O)c1cccc(N3CCCN(S(=O)(=O)c4ccccc4)CC3)n1)CC2` [Example 386], the EC50 was less than 400 nM.

As to `CC(=O)N1CCCN(c2cccc(C(=O)N3CCc4cc(C(=O)Nc5c(C)cccc5F)sc4-c4ccccc43)n2)CC1` [Example 387], the EC50 was less than 400 nM.

On to `Cc1cccc(F)c1NC(=O)c1cc2c(s1)-c1ccccc1N(C(=O)c1cccc(N3CCCN(C(=O)C4CC4)CC3)n1)CC2` [Example 388], for which the 50% effective concentration (EC50) is less than 400 nM.

Turning to `Cc1cccc(F)c1NC(=O)c1cc2c(s1)-c1ccccc1N(C(=O)c1cccc(N3C[C@@H](NC(=O)OC(C)(C)C)C[C@@H]3C)n1)CC2` [Example 389], the EC50 is less than 400 nM.

For the compound `Cc1cccc(F)c1NC(=O)c1cc2c(s1)-c1ccccc1N(C(=O)c1cccc(N3C[C@@H](N)C[C@@H]3C)n1)CC2` [Example 390], the concentration for a half-maximal effect (EC50) was more than 800 nM.

With `COC(=O)N[C@H]1C[C@H](C)N(c2cccc(C(=O)N3CCc4cc(C(=O)Nc5c(C)cccc5F)sc4-c4ccccc43)n2)C1` [Example 391], the EC50 is less than 400 nM.

Turning to `Cc1cccc(F)c1NC(=O)c1cc2c(s1)-c1ccccc1N(C(=O)c1cccc(N3C[C@@H](NS(C)(=O)=O)C[C@@H]3C)n1)CC2` [Example 392], the EC50 lay in the range of 400 to 800 nM.

As to `COc1cccc(Oc2cccc(C(=O)N3CCc4cc(C(=O)NC5CC5)sc4-c4ccccc43)n2)c1` [Example 393], the EC50 is more than 800 nM.

`COc1ncccc1Oc1cccc(C(=O)N2CCc3cc(C(=O)NC4CC4)sc3-c3ccccc32)n1` [Example 394]: the EC50 was more than 800 nM.

With `Cc1cccc(F)c1NC(=O)c1cc2c(s1)-c1cc(F)ccc1N(C(=O)c1cccc(N3CCOc4ccccc4C3)n1)CC2` [Example 395], the EC50 is less than 400 nM.

With `Cc1cccc(F)c1NC(=O)c1ccc2c(c1)CCN(C(=O)c1cccc(N3CCCOCC3)n1)c1ccccc1-2` [Example 396], the EC50 is more than 800 nM.

`O=C(NC1CC1)c1ccc2c(c1)CCN(C(=O)c1cccc(N3CCOc4ccccc4C3)n1)c1ccccc1-2` [Example 397]: the EC50 is more than 800 nM.

As for `NNC(=O)c1ccc2c(c1)CCN(C(=O)c1cccc(N3CCOc4ccccc4C3)n1)c1ccccc1-2` [Example 398], the EC50 is more than 800 nM.

For the compound `Cc1cccc(F)c1NC(=O)c1cc2c(s1)-c1ccccc1N(C(=O)c1cccc(N3CCOCC(F)(F)C3)n1)CC2` [Example 400], the EC50 was less than 400 nM.

`Cc1cccc(F)c1NC(=O)c1cc2c(s1)-c1ccccc1N(C(=O)c1cccc(N3CCCOCC3=O)n1)CC2` [Example 401]: the EC50 is more than 800 nM.

On to `Cc1cccc(F)c1NC(=O)c1cc2c(s1)-c1ccccc1N(C(=O)c1cccc(N3CCCOC(C)(C)C3)n1)CC2` [Example 402], for which the EC50 was less than 400 nM.

As to `Cc1cccc(F)c1NC(=O)c1cc2c(s1)-c1ccccc1N(C(=O)c1cccc(N3CCCC(F)(F)CC3)n1)CC2` [Example 403], the EC50 is less than 400 nM.

Take `Cc1cccc(F)c1NC(=O)c1cc2c(s1)-c1ccccc1N(C(=O)c1cccc(N3CCCOc4ccccc43)n1)CC2` [Example 404]: the concentration for a half-maximal effect (EC50) is less than 400 nM.

As for `Cc1cccc2c1CN(c1cccc(C(=O)N3CCc4cc(C(=O)Nc5c(C)cccc5F)sc4-c4ccccc43)n1)CCO2` [Example 405], the EC50 is less than 400 nM.

Regarding `Cc1cccc(F)c1NC(=O)c1cc2c(s1)-c1ccccc1N(C(=O)c1cccc(N3CCCS(=O)(=O)c4ccccc43)n1)CC2` [Example 406], the EC50 was in the range of 400 to 800 nM.

As for `COc1ccc(=O)n(-c2cccc(C(=O)N3CCc4cc(C(=O)Nc5c(C)cccc5F)sc4-c4ccccc43)n2)c1` [Example 407], the concentration giving a half-maximal response (EC50) was more than 800 nM.

As to `COc1ccc(Oc2cccc(C(=O)N3CCc4cc(C(=O)Nc5c(C)cccc5F)sc4-c4ccccc43)n2)nc1` [Example 408], the EC50 is more than 800 nM.

`COc1cccc(Nc2cccc(C(=O)N3CCc4cc(C(=O)NC5CC5)sc4-c4ccccc43)n2)n1` [Example 409]: the EC50 is more than 800 nM.

For `COc1ncccc1Nc1cccc(C(=O)N2CCc3cc(C(=O)NC4CC4)sc3-c3ccccc32)n1` [Example 410], the EC50 was more than 800 nM.

Turning to `O=C(NC1CC1)c1cc2c(s1)-c1ccccc1N(C(=O)c1cccc(Nc3cccc4c3C(=O)NC4)n1)CC2` [Example 411], the EC50 is more than 800 nM.

As for `CN1Cc2cccc(Nc3cccc(C(=O)N4CCc5cc(C(=O)NC6CC6)sc5-c5ccccc54)n3)c2C1=O` [Example 412], the concentration for a half-maximal effect (EC50) is more than 800 nM.

On to `Nc1cccc2c1C(=O)N(c1cccc(C(=O)N3CCc4cc(C(=O)NC5CC5)sc4-c4ccccc43)n1)C2` [Example 413], for which the EC50 is more than 800 nM.

Regarding `O=C(NC1CC1)c1cc2c(s1)-c1ccccc1N(C(=O)c1cccc(N3CCOc4ccccc4C3=O)n1)CC2` [Example 414], the EC50 was more than 800 nM.

`COc1ccn(-c2cccc(C(=O)N3CCc4cc(C(=O)Nc5c(C)cccc5F)sc4-c4ccccc43)n2)c(=O)c1` [Example 415]: the EC50 was more than 800 nM.
